Data reported in US8778923B2, “GLP-1 receptor modulators” (Receptos, Inc., priority 2011, dated 2014).

target: T1, GLP-1R (Homo sapiens, UniProt P43220); test: EC20 GLP-1(9-36) PAM cAMP assay: dose response of compound in the presence of fixed concentration of GLP-1(9-36); assay type: cell-based; conditions: GLP-1R CRE-bla CHO-K1 cells, compound dose response in presence of fixed concentration of GLP-1(9-36)
T1 construct: host or cells: CRE-bla CHO-K1
Method in brief: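 GLP-1R CRE-bla CHO-K1 cells in HBSS/10 mM Hepes/0.1% BSA pH 7.4 with IBMX got a 12-point compound dose response plus fixed EC20 GLP-1(9-36), 30 min at 37 °C. cAMP measured by HitHunter luminescence against a standard curve; EC50 and Emax by non-linear regression.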

T1 sequence (P43220 24-463): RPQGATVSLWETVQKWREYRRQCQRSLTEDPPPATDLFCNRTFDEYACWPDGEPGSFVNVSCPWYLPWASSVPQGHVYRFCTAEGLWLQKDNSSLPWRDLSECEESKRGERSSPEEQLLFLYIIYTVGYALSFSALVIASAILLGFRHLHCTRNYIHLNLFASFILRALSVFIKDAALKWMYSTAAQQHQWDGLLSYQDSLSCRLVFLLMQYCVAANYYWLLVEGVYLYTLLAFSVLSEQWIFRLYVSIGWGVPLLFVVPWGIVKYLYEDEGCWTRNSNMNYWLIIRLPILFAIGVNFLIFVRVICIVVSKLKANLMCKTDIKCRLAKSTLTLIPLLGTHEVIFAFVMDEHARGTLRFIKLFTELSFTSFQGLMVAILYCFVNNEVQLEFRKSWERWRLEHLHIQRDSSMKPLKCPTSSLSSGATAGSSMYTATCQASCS
T1 sequence (P01275 100-127 partner limits assumed): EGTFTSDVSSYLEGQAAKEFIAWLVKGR

SMILES | EC50 [nM]
COc1cc(OC)cc(-c2ccc(-c3nc(-c4ccc(C[C@H](NC(=O)c5ccc(C(C)(C)C)cc5)C(=O)O)cc4)no3)cc2)c1 [Compound 26] | 2500 to 5000
CCCCCCCOc1ccc(-c2cnc(-c3ccc(C[C@H](NC(=O)c4ccc(OC(C)(C)C)cc4)C(=O)O)cc3)nc2)cc1 [Compound 125] | 800 to 2500
Cc1ccc(-c2nc(-c3ccc(C[C@H](NC(=O)c4ccc(C(C)(C)C)cc4)C(=O)O)cc3)no2)cc1 [Compound 7] | 5000 to 10000
Cc1cc(C)cc(-c2nc(-c3ccc(C[C@H](NC(=O)c4ccc(C(C)(C)C)cc4)C(=O)O)cc3)no2)c1 [Compound 57] | 2500 to 5000
CCCCCCCOc1ccc(-c2nnc(-c3ccc(C[C@H](NC(=O)c4ccc(C(C)(C)C)cc4)C(=O)O)cc3)o2)cc1 [Compound 76] | 800 to 2500
CCCCCCCOc1ccc(-c2cnc(-c3ccc(C[C@H](NC(=O)c4ccc(S(=O)(=O)CC)cc4)C(=O)O)cc3)nc2)cc1 [Compound 127] | 800 to 2500
CC(C)(C)c1ccc(C(=O)N[C@@H](Cc2ccc(-c3noc(-c4ccc(S(C)(=O)=O)cc4)n3)cc2)C(=O)O)cc1 [Compound 41] | 2500 to 5000
CCCCCCCOc1ccc(-c2cnc(-c3ccc(C[C@H](NC(=O)c4csc(C(C)C)c4)C(=O)O)cc3)nc2)cc1 [Compound 146] | 2500 to 5000
COc1ccc(-c2ccc(-c3nc(-c4ccc(C[C@H](NC(=O)c5ccc(C(C)(C)C)cc5)C(=O)O)cc4)no3)cc2)c(OC)c1 [Compound 25] | 800 to 2500
CN(CCO)c1ccc(-c2nc(-c3ccc(C[C@H](NC(=O)c4ccc(C(C)(C)C)cc4)C(=O)O)cc3)no2)cc1 [Compound 55] | 2500 to 5000
Cn1ccc2cc(-c3nc(-c4ccc(C[C@H](NC(=O)c5ccc(C(C)(C)C)cc5)C(=O)O)cc4)no3)ccc21 [Compound 50] | 2500 to 5000
CCCCCCCOc1ccc(-c2cnc(-c3ccc(C[C@H](NC(=O)c4ccc(CC)cc4)C(=O)O)cc3)nc2)cc1 [Compound 89] | 800 to 2500
CCCCCCCOc1ccc(-c2cnc(-c3ccc(C[C@H](NC(=O)c4cccc(N)c4)C(=O)O)cc3)nc2)cc1 [Compound 104] | 800 to 2500
CCCCCCCOc1ccc(-c2cnc(-c3ccc(C[C@H](NC(=O)c4ccc(CCC)cc4)C(=O)O)cc3)nc2)cc1 [Compound 101] | 800 to 2500
CCCCCCCOc1ccc(-c2cnc(-c3ccc(C[C@H](NC(=O)c4ccc(OC(F)(F)F)cc4)C(=O)O)cc3)nc2)cc1 [Compound 120] | 800 to 2500
COc1ccc(-c2ccc(-c3nc(-c4ccc(C[C@H](NC(=O)c5ccc(C(C)(C)C)cc5)C(=O)O)cc4)no3)cc2)cc1 [Compound 15] | 2500 to 5000
CCCCCCCOc1ccc(-c2cnc(-c3ccc(C[C@H](NC(=O)c4cc5ccc(C)cc5s4)C(=O)O)cc3)nc2)cc1 [Compound 157] | 800 to 2500
COc1cc(C)ccc1-c1nc(-c2ccc(C[C@H](NC(=O)c3ccc(C(C)(C)C)cc3)C(=O)O)cc2)no1 [Compound 9] | 5000 to 10000
CC(C)Oc1ccc(-c2nc(-c3ccc(C[C@H](NC(=O)c4ccc(C(C)(C)C)cc4)C(=O)O)cc3)no2)cc1 [Compound 33] | 2500 to 5000
CCCCCCCOc1ccc(-c2cnc(-c3ccc(C[C@H](NC(=O)c4ccc(C(=O)N(C)C)cc4)C(=O)O)cc3)nc2)cc1 [Compound 128] | 800 to 2500
CCCCCCCOc1ccc(-c2cnc(-c3ccc(C[C@H](NC(=O)c4ccc(C(N)=O)cc4)C(=O)O)cc3)nc2)cc1 [Compound 115] | 800 to 2500
CCCCCCCOc1ccc(-c2cnc(-c3ccc(C[C@H](NC(=O)c4ccc(NCCCC)cc4)C(=O)O)cc3)nc2)cc1 [Compound 124] | 800 to 2500
CN1CCCc2c(-c3nc(-c4ccc(C[C@H](NC(=O)c5ccc(C(C)(C)C)cc5)C(=O)O)cc4)no3)cccc21 [Compound 52] | 800 to 2500
CCCCCCCOc1ccc(-c2cnc(-c3ccc(C[C@H](NC(=O)c4cc(C(C)(C)C)n[nH]4)C(=O)O)cc3)nc2)cc1 [Compound 136] | 5000 to 10000
CC(C)(C)c1ccc(C(=O)N[C@@H](Cc2ccc(-c3noc(-c4ccc(-c5cccc(F)c5)cc4)n3)cc2)C(=O)O)cc1 [Compound 20] | 800 to 2500
CCCCCCCOc1ccc(-c2cnc(-c3ccc(C[C@H](NC(=O)c4ccc(S(C)(=O)=O)cc4Cl)C(=O)O)cc3)nc2)cc1 [Compound 123] | 800 to 2500

Results, then the compound that gave them:

EC50 [nM] | SMILES
800 to 2500 | CCCCCCCOc1ccc(-c2cnc(-c3ccc(C[C@H](NC(=O)c4ccc(C(C)(C)C)s4)C(=O)NC(C)(C)CC(=O)O)cc3)nc2)cc1 [Compound 335]
800 to 2500 | CCCCCCCOc1ccc(-c2cnc(-c3ccc(C[C@H](NS(=O)(=O)c4ccc(Cl)cc4)C(=O)O)cc3)nc2)cc1 [Compound 185]
800 to 2500 | CCCCOc1ccc(-c2cnc(-c3ccc(C[C@H](NC(=O)c4ccc(C(C)(C)C)cc4)C(=O)O)cc3)nc2)cc1 [Compound 223]
< 800 | CCCCCCCOc1ccc(-c2cnc(-c3ccc(C[C@H](NC(=O)c4ccc(C(C)C)cc4)C(=O)N[C@@H](CCCCN)C(=O)O)cc3)nc2)cc1 [Compound 310]
800 to 2500 | CC(C)n1cc(C(=O)N[C@@H](Cc2ccc(-c3ncc(-c4ccc(C(C)(C)C)cc4)cn3)cc2)C(=O)NCC(=O)O)cn1 [Compound 370]
800 to 2500 | CCCCCCCOc1ccc(-c2cnc(-c3ccc(C[C@@H](NC(=O)c4ccc(C(C)(C)C)s4)C(=O)NCC(=O)O)cc3)nc2)cc1 [Compound 376]
800 to 2500 | COc1ccc(C(=O)N[C@@H](Cc2ccc(-c3ncc(-c4ccc(C(C)(C)C)cc4)cn3)cc2)C(=O)O)cc1 [Compound 170]
2500 to 5000 | CCCCCCCOc1ccc(-c2cnc(-c3ccc(C[C@H](NS(=O)(=O)c4ccc(Cl)c(Cl)c4)C(=O)O)cc3)nc2)cc1 [Compound 188]
800 to 2500 | CC(C)(C)c1ccc(-c2cnc(-c3ccc(C[C@H](NC(=O)c4ccc(C(C)(C)C)s4)C(=O)N[C@@H](CCC(=O)O)C(=O)O)cc3)nc2)cc1 [Compound 363]
800 to 2500 | CCc1ccc(C(=O)N[C@@H](Cc2ccc(-c3ncc(-c4ccc(C(C)(C)C)cc4)cn3)cc2)C(=O)O)s1 [Compound 166]
2500 to 5000 | CCCCCCCOc1ccc(N2CCN(c3ccc(C[C@H](NC(=O)c4ccc(C(C)(C)C)cc4)C(=O)O)cc3)CC2=O)cc1 [Compound 261]
800 to 2500 | CC(C)n1cc(C(=O)N[C@@H](Cc2ccc(-c3ncc(-c4ccc(C(C)(C)C)cc4)cn3)cc2)C(=O)O)cn1 [Compound 167]
800 to 2500 | CC(C)Oc1ccc(C(=O)N[C@@H](Cc2ccc(-c3ncc(-c4ccc(C(C)(C)C)cc4)cn3)cc2)C(=O)O)cc1 [Compound 162]
5000 to 10000 | COc1ccc(-c2cnc(-c3ccc(C[C@H](NC(=O)c4ccc(C(C)(C)C)cc4)C(=O)O)cc3)nc2)cc1 [Compound 198]
800 to 2500 | CCCCOc1ccc(-c2cnc(-c3ccc(C[C@H](NC(=O)c4ccc(C(C)(C)C)s4)C(=O)O)cc3)nc2)cc1 [Compound 237]
800 to 2500 | CCCCCCCOc1ccc(-c2cnc(-c3ccc(C[C@H](NC(=O)c4ccc(C(C)(C)C)cc4)C(=O)O)cc3)nc2OC)cc1 [Compound 292, (S)-2-(4-(tert-butyl)benzamido)-3-(4-(5-(4-(heptyloxy)phenyl)-4-methoxypyrimidin-2-yl)phenyl)propanoic acid]

EC50 [nM] | SMILES
800 to 2500 | CCCCCCCN1CCN(c2cnc(-c3ccc(C[C@H](NC(=O)c4ccc(C(C)(C)C)cc4)C(=O)O)cc3)nc2)CC1 [Compound 254]
800 to 2500 | CCCCCCCOc1ccc(-c2cnc(-c3ccc(C[C@H](NC(=O)c4ccc(C(C)(C)C)s4)C(=O)N(C)CCC(=O)O)cc3)nc2)cc1 [Compound 334]
800 to 2500 | CCCCCCCOc1ccc(-c2cnc(-c3ccc(C[C@H](NS(=O)(=O)c4ccc(OC)cc4)C(=O)O)cc3)nc2)cc1 [Compound 186]
800 to 2500 | CCCCCCCOc1ccc(-c2cnc(-c3ccc(C[C@H](NC(=O)c4ccc(OS(C)(=O)=O)cc4)C(=O)O)cc3)nc2)cc1 [Compound 183]
2500 to 5000 | CCCCCCCOc1ccccc1-c1cnc(-c2ccc(C[C@H](NC(=O)c3ccc(C(C)(C)C)cc3)C(=O)O)cc2)nc1 [Compound 220]
800 to 2500 | CCCCCCCOc1ccc(-c2cnc(-c3ccc(C[C@H](NC(=O)c4ccc(C(C)(C)C)s4)C(=O)N4CC[C@@H](C(=O)O)C4)cc3)nc2)cc1 [Compound 348]
800 to 2500 | CCCc1ccc(C(=O)N[C@@H](Cc2ccc(-c3ncc(-c4ccc(C(C)(C)C)cc4)cn3)cc2)C(=O)O)cc1 [Compound 164]
800 to 2500 | Cc1cc(-c2cnc(-c3ccc(C[C@H](NC(=O)c4ccc(C(C)(C)C)cc4)C(=O)O)cc3)nc2)ccc1N(C)C [Compound 232]
5000 to 10000 | Cc1ccc(-c2cnc(-c3ccc(C[C@H](NC(=O)c4ccc(C(C)(C)C)cc4)C(=O)O)cc3)nc2)cc1 [Compound 203]
< 800 | CCCCCCCOc1ccc(-c2cnc(-c3ccc(C[C@H](NC(=O)c4ccc(C(C)C)cc4)C(=O)NCC(=O)O)cc3)nc2)cc1 [Compound 317]
2500 to 5000 | CC(C)(C)c1ccc(C(=O)N[C@@H](Cc2ccc(-c3ncc(-c4cccc(C(C)(C)C)c4)cn3)cc2)C(=O)O)cc1 [Compound 204]
< 800 | CC(C)(C)c1ccc(-c2cnc(-c3ccc(C[C@H](NC(=O)c4ccc(C(C)(C)C)s4)C(=O)NCC(=O)O)cc3)nc2)cc1 [Compound 351]
< 800 | CCCCCCCOc1ccc(-c2cnc(-c3ccc(C[C@H](NC(=O)c4ccc(C(C)(C)C)s4)C(=O)NCC(=O)O)cc3)nc2)cc1 [Compound 319, (S)-(2-(5-(tert-butyl)thiophene-2-carboxamido)-3-(4-(5-(4-(heptyloxy)phenyl)pyrimidin-2-yl)phenyl)propanoyl)glycine]
800 to 2500 | Cc1cccc(-c2ccc(-c3cnc(-c4ccc(C[C@H](NC(=O)c5ccc(C(C)(C)C)s5)C(=O)O)cc4)nc3)cc2)c1 [Compound 247]
2500 to 5000 | CC(C)(C)c1ccc(C(=O)N[C@@H](Cc2ccc(-c3ncc(-c4ccc(OC5CC5)cc4)cn3)cc2)C(=O)O)s1 [Compound 244]
2500 to 5000 | CC(C)Oc1ccc(-c2cnc(-c3ccc(C[C@H](NC(=O)c4ccc(C(C)(C)C)cc4)C(=O)O)cc3)nc2)cc1 [Compound 200]
